Measurements published in patent US20040200144A1, “Plant growth regulator and a method of producing the regulator” (Dainichiseika Color & Chemicals Mfg. Co., Ltd., priority 2003, published 2004).

Legend:
Type in all cases: in vivo
lettuce young plants = assay: Dwarfing test of lettuce young plant; conditions: for Plant Height / Dwarfing Rate: 5 ml per cell on 5th day, measured 20th day; for Dwarfing Rate: vs comparative group
Description: (§1) 50 g of sodium tripolyphosphate was dissolved in 400 ml of distilled water at 80° C., 17.5 g of cinnamic acid was added to the sodium tripolyphosphate solution and dissolved by stirring, the resultant solution was diluted with distilled water until the total volume of solution was 500 ml, and thus 3.5% cinnamic acid aqueous solution (pH 6.5) was prepared. The aqueous solution was further diluted with distilled water 70 times or 17.5 times, and 0.05% cinnamic acid aqueous solution and 0.2% cinnamic acid aqueous solution were prepared, respectively.
(§2) Nursery soil for house use was filled into paper joint pots (each with 24 cells: 34×43×50 mm/cell), water was sufficiently given to the soil, and seeds of carrots were sowed. After seeding, the pot was placed in the same greenhouse as described above to sprout. Subsequently, on the 5th day, the cinnamic aqueous acid solutions were added to the nursery soil in the joint pots. One of the joint pots (24 cells) was prepared as a 0.05% cinnamic acid aqueous solution addition group, and 5 ml of the 0.05% cinnamic acid aqueous solution was added to the nursery soil of each cell. Another one of the join pots was prepared as a 0.2% cinnamic acid aqueous solution addition group, and 5 ml of the 0.2% cinnamic acid aqueous solution was added to the nursery soil of each cell. The other one of the joint pots was prepared as a comparative group in which 5 ml of water is added to each cell, instead of the cinnamic acid aqueous solution. Subsequently, the cultivation of carrot young plants in each group was continued under general conditions. On the 27th day, the heights of young plants in each group were measured, the dwarfing rate (%) was calculated, and the dwarfing effect of cinnamic acid aqueous solution on carrot young plants was examined. […].
In the same way as in Example 5 except that seeds of lettuce were sowed, and that heights of young plants in each group were measured on the 20th day, the dwarfing effect of cinnamic acid aqueous solution on lettuce young plants was examined. […]

cauliflower young plants = assay: Dwarfing test of cauliflower young plant; conditions: for Plant Height / Dwarfing Rate: 5 ml per cell on 4th day, measured 20th day; for Dwarfing Rate: vs comparative group
Description: [The source words this procedure for another target and says it was used here with some conditions changed.] as §1, §2

squash young plants = assay: Dwarfing test of squash young plant; conditions: for Plant Height / Dwarfing Rate: 5 ml per cell on 7th day, measured 20th day; for Dwarfing Rate: vs comparative group
Description: After seeding, the pot was placed in the same greenhouse as described above to sprout. Subsequently, on the 5th day, the cinnamic aqueous acid solutions were added to the nursery soil in the joint pots. One of the joint pots (24 cells) was prepared as a 0.05% cinnamic acid aqueous solution addition group, and 5 ml of the 0.05% cinnamic acid aqueous solution was added to the nursery soil of each cell. Another one of the join pots was prepared as a 0.2% cinnamic acid aqueous solution addition group, and 5 ml of the 0.2% cinnamic acid aqueous solution was added to the nursery soil of each cell. […] Subsequently, the cultivation of carrot young plants in each group was continued under general conditions. On the 27th day, the heights of young plants in each group were measured, the dwarfing rate (%) was calculated, and the dwarfing effect of cinnamic acid aqueous solution on carrot young plants was examined. From the results in Table 5, it became evident that the 0.05% and 0.2% cinnamic acid aqueous solutions are effective in dwarfing carrot young plants. In the same way as in Example 5 except that seeds of cauliflower were sowed, the cinnamic acid solutions were added to the nursery soil in the joint pot on the 4th day, and that heights of young plants in each group were measured on the 20th day, the dwarfing effect of cinnamic acid aqueous solution on cauliflower young plants was examined. From the results in Table 12, it became evident that the cinnamic acid aqueous solutions are effective in dwarfing cauliflower young plants. In the same way as in Example 12 except that seeds of tomato were sowed, and that the cinnamic acid solutions were added to the nursery soil of the joint pot on the 7th day, the dwarfing effect of cinnamic acid aqueous solution on tomato young plants was examined. From the results in Table 17, it became evident that the cinnamic acid aqueous solutions are effective in dwarfing tomato young plants. In the same way as in Example 17 except that seeds of squash were sowed, the dwarfing effect of cinnamic acid aqueous solution on squash young plants was examined. From the results in Table 20, it became evident that the cinnamic acid aqueous solutions are effective in dwarfing squash young plants.

watermelon young plants = assay: Dwarfing test of watermelon young plant; conditions: for Plant Height / Dwarfing Rate: 5 ml per cell on 7th day, measured 27th day; for Dwarfing Rate: vs comparative group
Description: After seeding, the pot was placed in the same greenhouse as described above to sprout. Subsequently, on the 5th day, the cinnamic aqueous acid solutions were added to the nursery soil in the joint pots. One of the joint pots (24 cells) was prepared as a 0.05% cinnamic acid aqueous solution addition group, and 5 ml of the 0.05% cinnamic acid aqueous solution was added to the nursery soil of each cell. Another one of the join pots was prepared as a 0.2% cinnamic acid aqueous solution addition group, and 5 ml of the 0.2% cinnamic acid aqueous solution was added to the nursery soil of each cell. […] Subsequently, the cultivation of carrot young plants in each group was continued under general conditions. On the 27th day, the heights of young plants in each group were measured, the dwarfing rate (%) was calculated, and the dwarfing effect of cinnamic acid aqueous solution on carrot young plants was examined. From the results in Table 5, it became evident that the 0.05% and 0.2% cinnamic acid aqueous solutions are effective in dwarfing carrot young plants. In the same way as in Example 5 except that seeds of cauliflower were sowed, the cinnamic acid solutions were added to the nursery soil in the joint pot on the 4th day, and that heights of young plants in each group were measured on the 20th day, the dwarfing effect of cinnamic acid aqueous solution on cauliflower young plants was examined. From the results in Table 12, it became evident that the cinnamic acid aqueous solutions are effective in dwarfing cauliflower young plants. In the same way as in Example 12 except that seeds of tomato were sowed, and that the cinnamic acid solutions were added to the nursery soil of the joint pot on the 7th day, the dwarfing effect of cinnamic acid aqueous solution on tomato young plants was examined. From the results in Table 17, it became evident that the cinnamic acid aqueous solutions are effective in dwarfing tomato young plants. In the same way as in Example 17 except that seeds of watermelon were sowed, and that plant heights were measured on the 27th day, the dwarfing effect of cinnamic acid aqueous solution on watermelon young plants was examined. From the results in Table 21, it became evident that the cinnamic acid aqueous solutions are effective in dwarfing watermelon young plants.

[1] = tested on: Japanese radish young plants; assay: Dwarfing test of Japanese radish young plant; conditions: for Plant Height / Dwarfing Rate: 5 ml per cell on 5th day, measured 27th day; for Dwarfing Rate: vs comparative group
Description: as §1, §2
In the same way as in Example 5 except that seeds of Japanese radish were sowed, the dwarfing effect of cinnamic acid aqueous solution on Japanese radish young plants was examined. […]

In the case of `O=C(O)C=Cc1ccccc1` [cinnamic acid], the “Plant Height” value (lettuce young plants; 0.05% aqueous solution) is reported as 5.7 cm, the “Dwarfing Rate” value (lettuce young plants; 0.05% aqueous solution) is reported as 6.6% and the “Plant Height” value (lettuce young plants; 0.2% aqueous solution) is reported as 4.3 cm. The “Dwarfing Rate” value (lettuce young plants; 0.2% aqueous solution) was 29.5%, the dwarfing effect (lettuce young plants; lettuce young plants, 0.05% and 0.2% aqueous solutions) was “effective” and the “Plant Height” value (cauliflower young plants; 0.05% aqueous solution) was 6.8 cm. For the same compound, the “Dwarfing Rate” value (cauliflower young plants; 0.05% aqueous solution) was 22.7%, the “Plant Height” value (cauliflower young plants; 0.2% aqueous solution) was 5.0 cm and the “Dwarfing Rate” value (cauliflower young plants; 0.2% aqueous solution) was 43.2%. The dwarfing effect (cauliflower young plants; cauliflower young plants, 0.05% and 0.2% aqueous solutions) was “effective”, the “Plant Height” value (squash young plants; 0.05% aqueous solution) was 6.3 cm and the “Dwarfing Rate” value (squash young plants; 0.05% aqueous solution) was 27.6%. For the same compound, the “Plant Height” value (squash young plants; 0.2% aqueous solution) was 4.3 cm, the “Dwarfing Rate” value (squash young plants; 0.2% aqueous solution) was 50.6% and the dwarfing effect (squash young plants; squash young plants, 0.05% and 0.2% aqueous solutions) was “effective”. The “Plant Height” value (watermelon young plants; 0.05% aqueous solution) was 9.3 cm, the “Dwarfing Rate” value (watermelon young plants; 0.05% aqueous solution) was 15.5% and the “Plant Height” value (watermelon young plants; 0.2% aqueous solution) was 7.9 cm. For the same compound, the “Dwarfing Rate” value (watermelon young plants; 0.2% aqueous solution) was 28.2%, the dwarfing effect (watermelon young plants; watermelon young plants, 0.05% and 0.2% aqueous solutions) was “effective” and the “Plant Height” value ([1]; 0.05% aqueous solution) was 15.3 cm. For the same compound, the “Dwarfing Rate” value ([1]; 0.05% aqueous solution) was 1.9%, the “Plant Height” value ([1]; 0.2% aqueous solution) was 10.9 cm and the “Dwarfing Rate” value ([1]; 0.2% aqueous solution) was 30.1%. The dwarfing effect ([1]; Japanese radish young plants, 0.05% and 0.2% aqueous solutions) was “effective”.
